Results: patent publication US20240317725A1, “LPA1 SMALL MOLECULE ANTAGONIST” (TUOJIE BIOTECH (SHANGHAI) CO., LTD., priority 2021, published 2024)

Target: T1, human lysophosphatidic acid receptor 1 (LPAR1) (Homo sapiens, UniProt Q92633)
T1 construct: host or cells: CHO-K1 (Chinese hamster ovary K1) cells, CHO-K1/LPA1R, kept under hygromycin B selection
Test: FLIPR test of antagonist properties: inhibition of LPA-induced intracellular calcium elevation in CHO-K1 cells expressing hLPAR1
Format: cell-based
Conditions: FLIPR calcium assay, CHO-K1/LPA1R cells, LPA at EC80
Protocol: The antagonist properties of the compounds of the present disclosure were tested using the FLIPR (fluorometric imaging plate reader) method. The compounds are inhibitors of intracellular calcium elevation induced by activation of hLPARI (human lysophosphatidic acid receptor 1) expressed in CHO-K1 cells (Chinese hamster ovary K1 cells, HDB).
2.1. Reaction buffer: HBSS+20 mM HEPES+0.1% fatty acid-free BSA+0.001% F-127
2.2. 50×Red dye: (a red dye for blocking background signals in cells) prepared by: weighing out 4 g of tartrazine and 10.2 g of acid red and dissolving them in 100 mL of H2O.
2.3. Fluo-8 staining mixture: 4 mL of reaction buffer, 32 μL of fluo-8, 320 μL of 50×Red dye, and 40 μL of probenecid.
3.1. LPA: dissolved in DPBS (containing 0.1% fatty acid-free BSA) to prepare a 0.8 μM stock solution, and the solution was aliquoted and stored at −20° C.
3.2. Test compound preparation: The test compounds were dissolved in DMSO to prepare 10 mM stock solutions, and the solutions were stored at −20° C. In the experiment, the compounds were first gradient-diluted with DMSO (initial concentration of 50 μM, 3-fold dilution, 10 points) to prepare 200×compound solutions. The compound solutions were then diluted with reaction buffer to give 5×compound solutions, and the solutions were transferred to a 384-well plate (Cat. No. 6008590) using Bravo.
4.1. CHO-K1/LPA1R cells were cultured in a cell culture medium (F-12+10% FBS+400 μg/mL hygromycin B).
4.2. When the cell confluence reached 80%, the cells were digested with 0.25% pancreatin.
4.3. When the cells became round, the digestion was stopped with the medium F-12 (10% FBS), and the cells were counted. Then the cell culture was diluted with F-12 (10% FBS) to give a cell suspension with a density of 6.7×10^5 cells/mL.
4.4. The cell suspension was added to a 384-well black cell culture plate at 30 µL/well using a Multidrop auto-dispenser, and the plate was incubated in a 37° C., 5% CO2 incubator for 20-24 h. The medium was changed to a serum-free F-12 medium, and the cells were starved for 24 h.
4.5. Dose experiment for testing LPA. Gradient dilutions of 6×LPA solution (initial concentration of 60 μM, 3-fold dilution, 10 points) were prepared with reaction buffer. The medium in the 384-well black cell culture plate was discarded and changed to reaction buffer. 10 μL of 5% DMSO reaction buffer was added, and 10 μL of Fluo-8 staining mixture was then added. The plate was incubated in the dark in a 37° C., 5% CO2 incubator for 0.5 h.
4.6. FLIPR was correspondingly programmed, the 6×LPA gradient solutions were added, and readings were taken. Two-minute data were collected.
4.7. A reaction curve was obtained from the numerical values of LPA, and the concentration of LPA at EC80 was calculated. A 6×LPA solution was prepared in a 384-well plate (Cat. No. 6008590), and HPE and ZPE were added to corresponding wells. HPE (one hundred per cent effect) was 60 μM LPA, and ZPE (zero per cent effect) was reaction buffer.
4.8. Testing of compounds. The medium in the 384-well black cell culture plate was discarded and changed to reaction buffer. 10 μL of 5×compound solution was transferred using Bravo, and then 10 μL of Fluo-8 staining mixture was added immediately. The plate was incubated in the dark in a 37° C., 5% CO2 incubator for 0.5 h.
4.9. FLIPR was correspondingly programmed, the 6×LPA solution was added, and readings were taken. Two-minute data were collected.
4.10. Finally, the output fluorescence counts were analyzed, and IC50 was calculated for the compounds.

T1 sequence (Q92633 whole entry): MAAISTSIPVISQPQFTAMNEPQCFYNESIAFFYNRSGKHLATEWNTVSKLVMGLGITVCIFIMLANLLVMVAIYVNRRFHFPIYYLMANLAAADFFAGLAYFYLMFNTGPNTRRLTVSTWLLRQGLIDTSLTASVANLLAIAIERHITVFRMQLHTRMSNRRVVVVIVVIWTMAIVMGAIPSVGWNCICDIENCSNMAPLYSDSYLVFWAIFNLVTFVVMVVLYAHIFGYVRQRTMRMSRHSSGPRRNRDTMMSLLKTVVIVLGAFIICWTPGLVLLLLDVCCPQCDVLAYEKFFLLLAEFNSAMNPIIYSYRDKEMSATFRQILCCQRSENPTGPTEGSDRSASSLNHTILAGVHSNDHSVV

For COCc1ccnc(OCc2c(-c3ccc(OC4CC5CCC(C)(C(=O)O)C5C4)c(C)n3)nnn2C)n1 (single isomer, unassigned) [Compound 14-P1, 5-((6-(5-(((4-(Methoxymethyl)pyrimidin-2-yl)oxy)methyl)-1-methyl-1H-1,2,3-triazol-4-yl)-2-methylpyridin-3-yl)oxy)-1-methyloctahydropentalene-1-carboxylic acid], which IC50 is on record?
The IC50 was 41.5 nM.

COCc1ccnc(OCc2c(-c3ccc(OC4CC5CCC(C)(C(=O)O)C5C4)c(C)n3)nnn2C)n1 (single isomer, unassigned) [Compound 14-P2, 5-((6-(5-(((4-(Methoxymethyl)pyrimidin-2-yl)oxy)methyl)-1-methyl-1H-1,2,3-triazol-4-yl)-2-methylpyridin-3-yl)oxy)-1-methyloctahydropentalene-1-carboxylic acid] was tested. Which IC50 did it give?
The IC50 was greater than 10000 nM.

Which IC50 does the source give for CCCN(C)C(=O)OCc1c(-c2ccc(O[C@H]3CCC[C@H](C(=O)O)C3)c(C)n2)nnn1C [BMS986278, reference compound] here?
Its IC50 is 60.6 nM.

With Cc1nc(-c2nnn(C)c2COc2nccc(C(F)(F)F)n2)ccc1OC1CC2CCC(C(=O)O)C2C1 (stereo not shown) [Compound 1, 5-((2-Methyl-6-(1-methyl-5-(((4-(trifluoromethyl)pyrimidin-2-yl)oxy)methyl)-1H-1,2,3-triazol-4-yl)pyridin-3-yl)oxy)octahydropentalene-1-carboxylic acid] as the compound, how does the IC50 read?
The IC50 was 16.7 nM.

With Cc1nc(-c2nnn(C)c2COc2nccc(C(F)F)n2)ccc1OC1CC2CCC(F)(C(=O)O)C2C1 (stereo not shown) [Compound 6, 5-((6-(5-(((4-(Difluoromethyl)pyrimidin-2-yl)oxy)methyl)-1-methyl-1H-1,2,3-triazol-4-yl)-2-methylpyridin-3-yl)oxy)-1-fluorooctahydropentalene-1-carboxylic acid] as the compound, how does the IC50 read?
The IC50 was 39.6 nM.

With Cc1nc(-c2nnn(C)c2COc2nccc(C(F)F)n2)ccc1OC1CC2CCC(C(=O)O)C2C1 (stereo not shown) [Compound 7, 5-((6-(5-(((4-(Difluoromethyl)pyrimidin-2-yl)oxy)methyl)-1-methyl-1H-1,2,3-triazol-4-yl)-2-methylpyridin-3-yl)oxy)octahydropentalene-1-carboxylic acid] as the compound, how does the IC50 read?
Its IC50 is 93.9 nM.

Which IC50 does the source give for Cc1nc(-c2nnn(C)c2COc2nccc(C(F)(F)F)n2)ccc1O[C@H]1CCC[C@H](C(=O)O)C1 [Compound 12, (1S,3S)-3-((2-Methyl-6-(1-methyl-5-(((4-(trifluoromethyl)pyrimidin-2-vl)oxy)methyl)-1H-1,2,3-triazol-4-yl)pyridin-3-yl)oxy)cyclohexane-1-carboxylic acid] here?
Its IC50 is 75 nM.
